Test results as given in patent US11702422B2, “Imidazopyridazines as modulators of IL-17” (Janssen Pharmaceutica NV, priority 2020, dated 2023).

Legend:
[1] = target: IL-17A(FLAG-Tagged): IL-17RA(His-Tagged) (Homo sapiens, UniProt Q16552, K93Q); assay: IL-17A(FLAG-Tagged): IL-17RA(His-Tagged) Binding Disruption Eu-HTRF Assay; conditions: IL-17A/IL-17RA binding disruption, simple average if tested more than once
In short: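 IC50 comes from a one-site competition fit of the HTRF 665/620 nm ratio. Compound dilutions (2-fold, 22 points) were held 1 h rt with FLAG-tagged IL-17A dimer, then His-tagged IL-17RA plus Eu-cryptate anti-FLAG and D2 anti-His antibodies were added for 2 h rt.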

[2] = test system: IL-17A-induced G-CSF production in human normal keratinocyte (NHK); assay: NHK Assay: IL-17A-induced G-CSF production in human normal keratinocytes; type: cell-based; conditions: Homo sapiens, Keratinocyte, 24 h, adult normal human keratinocytes, IL-17A 5 ng/mL, simple average if tested more than once
In short: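 Adult NHK, 3000-4000 cells/well; rhIL-17A + titrated cpd preincubated 1 h rt, then onto cells. Final: IL-17A 5 ng/mL, DMSO 0.2%, 5% FBS. 24 h, 37° C. G-CSF in supernatant by HTRF vs standard curve; IC50. Viability by CellTiter-Glo vs DMSO.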

Sequence of UniProt Q16552 (Q16552 with tags, fused parts or gaps K93Q): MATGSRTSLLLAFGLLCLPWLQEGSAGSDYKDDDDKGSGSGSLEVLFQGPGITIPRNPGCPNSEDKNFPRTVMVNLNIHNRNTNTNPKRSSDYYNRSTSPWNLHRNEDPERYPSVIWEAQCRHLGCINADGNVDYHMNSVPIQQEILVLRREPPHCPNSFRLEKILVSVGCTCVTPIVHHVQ

Row | Structure (SMILES) | IC50 [1] | IC50 [2]
1 | O=C(CCC(F)(F)F)N[C@@H](c1cnn2cc([C@@H](NC(=O)c3ccnc4c3CCC4)C3CCC(F)(F)CC3)nc2c1)C1CC1 [Example 191, N—((S)-(7-((R)-Cyclopropyl(4,4,4-trifluorobutanamido)methyl)imidazo[1,2-b]pyridazin-2-yl)(4,4-difluorocyclohexyl)methyl)-6,7-dihydro-5H-cyclopenta[b]pyridine-4-carboxamide] | 290 nM | 1100 nM
2 | O=C(CCC(F)(F)F)N[C@@H](c1cnn2cc([C@@H](NC(=O)c3cccnc3)C3CCC(F)(F)CC3)nc2c1)C1CC1 [Example 192, N—((S)-(7-((R)-Cyclopropyl(4,4,4-trifluorobutanamido)methyl)imidazo[1,2-b]pyridazin-2-yl)(4,4-difluorocyclohexyl)methyl)nicotinamide] | 240 nM | 1200 nM
3 | O=C(CCC(F)(F)F)N[C@@H](c1cnn2cc([C@@H](NC(=O)c3cccnc3C3CC3)C3CCC(F)(F)CC3)nc2c1)C1CC1 [Example 193, 2-Cyclopropyl-N—((S)-(7-((R)-cyclopropyl(4,4,4-trifluorobutanamido)methyl)imidazo[1,2-b]pyridazin-2-yl)(4,4-difluorocyclohexyl)methyl)nicotinamide] | 500 nM | 1300 nM
4 | O=C(CCC(F)(F)F)N[C@@H](c1cnn2cc([C@@H](NC(=O)c3ccnc(C(F)(F)F)c3)C3CCC(F)(F)CC3)nc2c1)C1CC1 [Example 194, N—((S)-(7-((R)-Cyclopropyl(4,4,4-trifluorobutanamido)methyl)imidazo[1,2-b]pyridazin-2-yl)(4,4-difluorocyclohexyl)methyl)-2-(trifluoromethyl)isonicotinamide] | 140 nM | 1600 nM
5 | O=C(CCC(F)(F)F)N[C@@H](c1cnn2cc([C@@H](NC(=O)c3ccncc3F)C3CCC(F)(F)CC3)nc2c1)C1CC1 [Example 195, N—((S)-(7-((R)-Cyclopropyl(4,4,4-trifluorobutanamido)methyl)imidazo[1,2-b]pyridazin-2-yl)(4,4-difluorocyclohexyl)methyl)-3-fluoroisonicotinamide] | 580 nM | 1600 nM
6 | COc1ccnc(C(=O)N[C@H](c2cn3ncc([C@H](NC(=O)CCC(F)(F)F)C4CC4)cc3n2)C2CCC(F)(F)CC2)c1 [Example 196, N—((S)-(7-((R)-Cyclopropyl(4,4,4-trifluorobutanamido)methyl)imidazo[1,2-b]pyridazin-2-yl)(4,4-difluorocyclohexyl)methyl)-4-methoxypicolinamide] | 480 nM | 1700 nM
7 | O=C(CCC(F)(F)F)N[C@@H](c1cnn2cc([C@@H](NC(=O)c3cc(OCC(F)F)ccn3)C3CCC(F)(F)CC3)nc2c1)C1CC1 [Example 197, N—((S)-(7-((R)-Cyclopropyl(4,4,4-trifluorobutanamido)methyl)imidazo[1,2-b]pyridazin-2-yl)(4,4-difluorocyclohexyl)methyl)-4-(2,2-difluoroethoxy)picolinamide] | 300 nM | 1700 nM
8 | O=C(CCC(F)(F)F)N[C@@H](c1cnn2cc([C@@H](NC(=O)c3cc(C(F)(F)F)ccn3)C3CCC(F)(F)CC3)nc2c1)C1CC1 [Example 198, N—((S)-(7-((R)-Cyclopropyl(4,4,4-trifluorobutanamido)methyl)imidazo[1,2-b]pyridazin-2-yl)(4,4-difluorocyclohexyl)methyl)-4-(trifluoromethyl)picolinamide] | 410 nM | 1800 nM
9 | O=C(CCC(F)(F)F)N[C@@H](c1cnn2cc([C@@H](NC(=O)c3cc(C(F)F)ncn3)C3CCC(F)(F)CC3)nc2c1)C1CC1 [Example 199, N—((S)-(7-((R)-Cyclopropyl(4,4,4-trifluorobutanamido)methyl)imidazo[1,2-b]pyridazin-2-yl)(4,4-difluorocyclohexyl)methyl)-6-(difluoromethyl)pyrimidine-4-carboxamide] | 230 nM | 2000 nM
10 | Cc1ncccc1C(=O)N[C@H](c1cn2ncc([C@H](NC(=O)CCC(F)(F)F)C3CC3)cc2n1)C1CCC(F)(F)CC1 [Example 200, N—((S)-(7-((R)-Cyclopropyl(4,4,4-trifluorobutanamido)methyl)imidazo[1,2-b]pyridazin-2-yl)(4,4-difluorocyclohexyl)methyl)-2-methylnicotinamide] | 760 nM | 2200 nM
11 | O=C(CCC(F)(F)F)N[C@@H](c1cnn2cc([C@@H](NC(=O)c3cccc(OCC(F)F)n3)C3CCC(F)(F)CC3)nc2c1)C1CC1 [Example 201, N—((S)-(7-((R)-Cyclopropyl(4,4,4-trifluorobutanamido)methyl)imidazo[1,2-b]pyridazin-2-yl)(4,4-difluorocyclohexyl)methyl)-6-(2,2-difluoroethoxy)picolinamide] | 470 nM | 2200 nM
12 | O=C(CCC(F)(F)F)N[C@@H](c1cnn2cc([C@@H](NC(=O)c3cc(C(F)(F)F)ncn3)C3CCC(F)(F)CC3)nc2c1)C1CC1 [Example 202, N—((S)-(7-((R)-Cyclopropyl(4,4,4-trifluorobutanamido)methyl)imidazo[1,2-b]pyridazin-2-yl)(4,4-difluorocyclohexyl)methyl)-6-(trifluoromethyl)pyrimidine-4-carboxamide] | 440 nM | 2300 nM
13 | O=C(CCC(F)(F)F)N[C@@H](c1cnn2cc([C@@H](NC(=O)c3cccc(OCC(F)(F)F)n3)C3CCC(F)(F)CC3)nc2c1)C1CC1 [Example 203, N—((S)-(7-((R)-Cyclopropyl(4,4,4-trifluorobutanamido)methyl)imidazo[1,2-b]pyridazin-2-yl)(4,4-difluorocyclohexyl)methyl)-6-(2,2,2-trifluoroethoxy)picolinamide] | 190 nM | 2700 nM
14 | O=C(CCC(F)(F)F)N[C@@H](c1cnn2cc([C@@H](NC(=O)c3cncnc3)C3CCC(F)(F)CC3)nc2c1)C1CC1 [Example 204, N—((S)-(7-((R)-Cyclopropyl(4,4,4-trifluorobutanamido)methyl)imidazo[1,2-b]pyridazin-2-1)(4,4-difluorocyclohexyl)methyl)pyrimidine-5-carboxamide] | 320 nM | 3300 nM
15 | CC(C)c1cccc(C(=O)N[C@H](c2cn3ncc([C@H](NC(=O)CCC(F)(F)F)C4CC4)cc3n2)C2CCC(F)(F)CC2)n1 [Example 205, N—((S)-(7-((R)-Cyclopropyl(4,4,4-trifluorobutanamido)methyl)imidazo[1,2-b]pyridazin-2-yl)(4,4-difluorocyclohexyl)methyl)-6-isopropylpicolinamide] | 390 nM | 3700 nM
16 | Cc1ccnc(C(=O)N[C@H](c2cn3ncc([C@H](NC(=O)CCC(F)(F)F)C4CC4)cc3n2)C2CCC(F)(F)CC2)c1 [Example 206, N—((S)-(7-((R)-Cyclopropyl(4,4,4-trifluorobutanamido)methyl)imidazo[1,2-b]pyridazin-2-yl)(4,4-difluorocyclohexyl)methyl)-4-methylpicolinamide] | 540 nM | 4000 nM
17 | O=C(CCC(F)(F)F)N[C@@H](c1cnn2cc([C@@H](NC(=O)c3ccncn3)C3CCC(F)(F)CC3)nc2c1)C1CC1 [Example 207, N—((S)-(7-((R)-Cyclopropyl(4,4,4-trifluorobutanamido)methyl)imidazo[1,2-b]pyridazin-2-yl)(4,4-difluorocyclohexyl)methyl)pyrimidine-4-carboxamide] | 1800 nM | 8400 nM
